Results reported in US11912701B2, “Protein kinase inhibitors for promoting liver regeneration or reducing or preventing hepatocyte death” (HEPAREGENIX GMBH, priority 2018, dated 2024).

Legend:
MKK4 [1] = molecular target: T1, MKK4 (Homo sapiens, UniProt P45985); test: KINOMEscan competition binding assay, MKK4; details: residual percent of control binding (PoC) at 100 nM
T1 construct: S84/D399; host or cells: HEK-293
T1 sequence (P45985 84-399): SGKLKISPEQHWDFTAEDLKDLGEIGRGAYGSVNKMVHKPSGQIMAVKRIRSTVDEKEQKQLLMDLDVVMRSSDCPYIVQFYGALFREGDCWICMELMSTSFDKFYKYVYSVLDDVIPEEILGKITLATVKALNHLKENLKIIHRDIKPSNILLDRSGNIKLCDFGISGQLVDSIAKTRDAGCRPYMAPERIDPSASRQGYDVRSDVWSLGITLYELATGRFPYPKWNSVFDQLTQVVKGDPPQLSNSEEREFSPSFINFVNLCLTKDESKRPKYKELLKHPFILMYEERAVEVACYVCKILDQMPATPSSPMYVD
How it was run: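 KINOMEscan competition of compound versus immobilized ligand for DNA-tagged MKK4 expressed in HEK-293 cells. Bound kinase was quantified by qPCR after elution.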

BRaf [2] = molecular target: T2, BRaf (Homo sapiens, UniProt P15056); test: KINOMEscan competition binding assay, BRaf; details: ratio PoC (off-target)/PoC (MKK4)
T2 construct: purchased ProQinase GmbH, Freiburg, Germany (33PanQinase Assay Service)
How it was run: (§1)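 DNA-tagged kinases expressed in HEK-293 cells compete between immobilized ligand on blocked beads and test compound at 100 nM; kinase retained on beads quantified by qPCR of the tag.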

MKK4 [3] = molecular target: T3, MKK4 (Homo sapiens, UniProt P45985); test: 33PanQinase enzyme assay, MKK4; format: biochemical; details: assay 'IC50'; read-out: Potency MKK4 (IC50)
T3 construct: purchased ProQinase GmbH, Freiburg, Germany (33PanQinase Assay Service)
T3 sequence (P45985 1-399): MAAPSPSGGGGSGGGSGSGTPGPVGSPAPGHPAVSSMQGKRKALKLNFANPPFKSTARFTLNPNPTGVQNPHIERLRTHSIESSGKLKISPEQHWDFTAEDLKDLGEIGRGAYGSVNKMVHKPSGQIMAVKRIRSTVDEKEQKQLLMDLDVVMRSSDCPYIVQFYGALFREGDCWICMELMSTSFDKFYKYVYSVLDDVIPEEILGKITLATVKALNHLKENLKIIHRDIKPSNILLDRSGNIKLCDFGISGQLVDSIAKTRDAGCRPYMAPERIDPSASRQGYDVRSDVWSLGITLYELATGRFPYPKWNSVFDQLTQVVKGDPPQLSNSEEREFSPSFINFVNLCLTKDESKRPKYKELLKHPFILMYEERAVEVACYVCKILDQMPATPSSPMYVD
How it was run: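 Radiometric 33PanQinase assay: kinase, substrate, ATP and compound in standard buffer, 60 min at 30 °C; 33Pi incorporation read by scintillation counting.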

BRaf [4] = molecular target: T2, BRaf; test: 33PanQinase enzyme assay, BRaf; format: biochemical; details: ratio IC50(BRaf)/IC50(MKK4)
How it was run: (§2)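 Radiometric kinase reactions with ATP, test compound in DMSO and enzyme/substrate mix were incubated 60 min at 30 °C, stopped with 2% H3PO4 and washed; incorporated 33Pi was counted by scintillation. Single-concentration data are given as % residual activity; IC50 values come from least-squares curve fits.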

MKK7 [5] = molecular target: T4, MKK7 (Homo sapiens, UniProt O14733); test: KINOMEscan competition binding assay, MKK7; parameters: M1/R419; host or cells: HEK-293; details: ratio PoC (off-target)/PoC (MKK4)
T4 sequence (O14733 1-419): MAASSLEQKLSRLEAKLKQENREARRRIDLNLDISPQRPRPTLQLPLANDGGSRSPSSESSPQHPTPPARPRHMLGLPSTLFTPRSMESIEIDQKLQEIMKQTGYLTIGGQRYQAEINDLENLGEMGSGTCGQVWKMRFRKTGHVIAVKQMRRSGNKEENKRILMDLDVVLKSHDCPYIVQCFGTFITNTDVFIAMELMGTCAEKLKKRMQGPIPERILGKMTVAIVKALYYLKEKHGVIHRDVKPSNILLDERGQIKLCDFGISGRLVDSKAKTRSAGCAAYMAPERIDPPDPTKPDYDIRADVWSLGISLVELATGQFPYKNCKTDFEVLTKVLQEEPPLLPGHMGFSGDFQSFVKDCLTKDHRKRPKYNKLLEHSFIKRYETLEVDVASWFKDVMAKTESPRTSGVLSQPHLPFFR
How it was run: as §1

JNK1 [6] = molecular target: T5, JNK1 (Homo sapiens, UniProt P45983); test: KINOMEscan competition binding assay, JNK1; parameters: M1/Q384; host or cells: HEK-293; details: ratio PoC (off-target)/PoC (MKK4)
How it was run: as §1
Target sequence in this assay (P45983 1-384 isoform P45983-2): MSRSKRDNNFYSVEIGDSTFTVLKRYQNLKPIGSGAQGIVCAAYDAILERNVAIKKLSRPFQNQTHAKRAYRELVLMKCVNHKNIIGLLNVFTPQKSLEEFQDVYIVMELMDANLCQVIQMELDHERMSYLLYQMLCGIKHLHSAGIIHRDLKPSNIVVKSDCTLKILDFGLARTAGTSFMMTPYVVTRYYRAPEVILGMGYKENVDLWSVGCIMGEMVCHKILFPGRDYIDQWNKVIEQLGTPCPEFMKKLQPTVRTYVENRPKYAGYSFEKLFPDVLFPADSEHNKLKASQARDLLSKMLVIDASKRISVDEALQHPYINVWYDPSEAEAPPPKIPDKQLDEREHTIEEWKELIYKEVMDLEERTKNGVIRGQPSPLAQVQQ

JNK1 [7] = molecular target: T5, JNK1; test: 33PanQinase enzyme assay, JNK1; format: biochemical; parameters: purchased ProQinase GmbH, Freiburg, Germany (33PanQinase Assay Service); details: ratio IC50(JNK1)/IC50(MKK4)
How it was run: as §2
Target sequence in this assay (P45983 whole entry): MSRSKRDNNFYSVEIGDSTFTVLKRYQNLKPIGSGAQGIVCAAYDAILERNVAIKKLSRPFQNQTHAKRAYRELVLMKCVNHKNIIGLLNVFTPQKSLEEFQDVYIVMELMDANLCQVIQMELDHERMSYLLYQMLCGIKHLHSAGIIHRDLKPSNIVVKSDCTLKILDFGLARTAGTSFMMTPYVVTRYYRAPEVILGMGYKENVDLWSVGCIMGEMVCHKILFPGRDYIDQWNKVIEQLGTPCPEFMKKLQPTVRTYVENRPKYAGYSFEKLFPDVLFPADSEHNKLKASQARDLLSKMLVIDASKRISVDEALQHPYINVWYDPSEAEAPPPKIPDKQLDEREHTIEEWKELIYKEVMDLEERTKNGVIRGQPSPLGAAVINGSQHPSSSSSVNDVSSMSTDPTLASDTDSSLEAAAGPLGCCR

MKK7 [8] = molecular target: T4, MKK7; test: 33PanQinase enzyme assay, MKK7; format: biochemical; parameters: purchased ProQinase GmbH, Freiburg, Germany (33PanQinase Assay Service); details: ratio IC50(MKK7)/IC50(MKK4)
How it was run: as §2

T2 sequence (P15056 whole entry, species assumed): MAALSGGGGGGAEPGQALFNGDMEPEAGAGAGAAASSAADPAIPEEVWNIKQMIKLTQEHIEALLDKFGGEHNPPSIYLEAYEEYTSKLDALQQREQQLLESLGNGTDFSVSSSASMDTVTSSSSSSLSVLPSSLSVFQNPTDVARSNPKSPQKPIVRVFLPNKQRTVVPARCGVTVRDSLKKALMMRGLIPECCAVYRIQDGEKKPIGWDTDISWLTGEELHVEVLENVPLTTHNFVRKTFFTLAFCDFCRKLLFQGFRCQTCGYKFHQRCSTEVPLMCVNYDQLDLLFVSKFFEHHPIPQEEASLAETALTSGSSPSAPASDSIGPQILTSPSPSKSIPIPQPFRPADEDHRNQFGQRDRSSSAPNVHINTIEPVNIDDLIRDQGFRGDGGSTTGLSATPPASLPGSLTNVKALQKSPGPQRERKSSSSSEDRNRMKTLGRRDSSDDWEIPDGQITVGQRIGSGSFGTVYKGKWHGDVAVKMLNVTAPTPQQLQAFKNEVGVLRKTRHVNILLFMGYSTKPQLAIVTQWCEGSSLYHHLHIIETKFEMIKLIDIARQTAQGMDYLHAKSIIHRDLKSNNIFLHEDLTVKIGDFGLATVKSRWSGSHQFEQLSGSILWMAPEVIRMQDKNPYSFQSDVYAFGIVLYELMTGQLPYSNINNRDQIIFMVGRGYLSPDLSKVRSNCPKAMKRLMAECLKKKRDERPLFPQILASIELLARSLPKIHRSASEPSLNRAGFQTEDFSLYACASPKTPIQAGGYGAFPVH

MKK4 [% Ctrl @ 100 nM (MKK4 [1]) | selectivity based on % Ctrl @100 nM vs. Braf (BRaf [2]) | IC50 (MKK4 [3]) | Selectivity Braf, IC50(off-target)/IC50(MKK4) (BRaf [4]) | selectivity based on % Ctrl @100 nM vs. MKK7 (MKK7 [5]) | selectivity based on % Ctrl @100 nM vs. JNK1 (JNK1 [6]) | Selectivity JNK1, IC50(off-target)/IC50(MKK4) (JNK1 [7]) | Selectivity IVIKK7, IC50(off-target)/IC50(MKK4) (MKK7 [8]) | Structure (SMILES)
+++ (PoC < 1) | ◯ (3 ≥ Ratio) | 0.1 to 1 µM | ◯ (3 ≥ IC50(off-target)/IC50(MKK4)) | +++ (Ratio > 100) | +++ (Ratio > 100) | ◯ (3 ≥ IC50(off-target)/IC50(MKK4)) | +++ (IC50(off-target)/IC50(MKK4) > 100) | CCCS(=O)(=O)Nc1ccc(F)c(C(=O)c2c[nH]c3ncc(-c4ccc(N)nc4)cc23)c1F [Example 50]
+++ (PoC < 1) | + (10 ≥ ratio > 3) | 0.1 to 1 µM | ◯ (3 ≥ IC50(off-target)/IC50(MKK4)) | +++ (Ratio > 100) | +++ (Ratio > 100) | ◯ (3 ≥ IC50(off-target)/IC50(MKK4)) | +++ (IC50(off-target)/IC50(MKK4) > 100) | CCCS(=O)(=O)Nc1ccc(F)c(C(=O)c2c[nH]c3ncc(-c4ccc(S(N)(=O)=O)nc4)cc23)c1F [Example 53]
+++ (PoC < 1) | ◯ (3 ≥ Ratio) | 0.1 to 1 µM | ◯ (3 ≥ IC50(off-target)/IC50(MKK4)) | +++ (Ratio > 100) | +++ (Ratio > 100) | + (10 ≥ IC50(off-target)/IC50(MKK4) > 3) | +++ (IC50(off-target)/IC50(MKK4) > 100) | CCCS(=O)(=O)Nc1ccc(F)c(C(=O)c2c[nH]c3ncc(-c4ccc(S(C)(=O)=O)nc4)cc23)c1F [Example 77, N-(2,4-difluoro-3-(5-(6-(methylsulfonyl)pyridin-3-yl)-1H-pyrrolo[2,3-b]pyridine-3-carbonyl)phenyl)propane-1-sulfonamide]

Second part, the compound before the results:

Structure (SMILES) | MKK4 [% Ctrl @ 100 nM (MKK4 [1]) | selectivity based on % Ctrl @100 nM vs. Braf (BRaf [2]) | IC50 (MKK4 [3]) | Selectivity Braf, IC50(off-target)/IC50(MKK4) (BRaf [4]) | selectivity based on % Ctrl @100 nM vs. MKK7 (MKK7 [5]) | selectivity based on % Ctrl @100 nM vs. JNK1 (JNK1 [6]) | Selectivity JNK1, IC50(off-target)/IC50(MKK4) (JNK1 [7]) | Selectivity IVIKK7, IC50(off-target)/IC50(MKK4) (MKK7 [8])
CCCS(=O)(=O)Nc1ccc(F)c(C(=O)c2c[nH]c3ncc(-c4cccnn4)cc23)c1F [Example 48] | + (3 ≤ PoC < 30) | ◯ (3 ≥ Ratio) | 1 to 10 µM | ◯ (3 ≥ IC50(off-target)/IC50(MKK4)) | ++ (100 ≥ ratio > 10) | ++ (100 ≥ ratio > 10) | ◯ (3 ≥ IC50(off-target)/IC50(MKK4)) | ++ (100 ≥ IC50(off-target)/IC50(MKK4) > 10)
CNc1ncc(-c2cnc3[nH]cc(C(=O)c4ccc(F)c(NS(=O)(=O)CCC(F)(F)F)c4F)c3c2)cn1 [Example 177, N-(2,6-difluoro-3-(5-(2-(methylamino)pyrimidin-5-yl)-1H-pyrrolo[2,3-b]pyridine-3-carbonyl)phenyl)-3,3,3-trifluoropropane-1-sulfonamide] | +++ (PoC < 1) | +++ (Ratio > 100) | < 0.1 µM |  | +++ (Ratio > 100) | +++ (Ratio > 100) | +++ (IC50(off-target)/IC50(MKK4) > 100) | +++ (IC50(off-target)/IC50(MKK4) > 100)
CN(C)c1ncc(-c2cnc3[nH]cc(C(=O)c4ccc(F)c(NS(=O)(=O)CCC(F)(F)F)c4F)c3c2)cn1 [Example 178, N-(3-(5-(2-(dimethylamino)pyrimidin-5-yl)-1H-pyrrolo[2,3-b]pyridine-3-carbonyl)-2,6-difluorophenyl)-3,3,3-trifluoropropane-1-sulfonamide] | +++ (PoC < 1) | +++ (Ratio > 100) | < 0.1 µM |  | +++ (Ratio > 100) | +++ (Ratio > 100) | +++ (IC50(off-target)/IC50(MKK4) > 100) | +++ (IC50(off-target)/IC50(MKK4) > 100)
CS(=O)(=O)Nc1c(F)ccc(C(=O)c2c[nH]c3ncc(-c4cccnc4)cc23)c1F [Example 228, N-(2,6-difluoro-3-(5-(pyridin-3-yl)-1H-pyrrolo[2,3-b]pyridine-3-carbonyl)phenyl)methanesulfonamide] | +++ (PoC < 1) | +++ (Ratio > 100) | 0.1 to 1 µM |  | +++ (Ratio > 100) | +++ (Ratio > 100) | ++ (100 ≥ IC50(off-target)/IC50(MKK4) > 10) | ++ (100 ≥ IC50(off-target)/IC50(MKK4) > 10)
CS(=O)(=O)Nc1c(F)ccc(C(=O)c2c[nH]c3ncc(-c4ccncc4)cc23)c1F [Example 234, N-(2,6-difluoro-3-(5-(pyridin-4-yl)-1H-pyrrolo[2,3-b]pyridine-3-carbonyl)phenyl)methanesulfonamide] | +++ (PoC < 1) | +++ (Ratio > 100) | < 0.1 µM |  | +++ (Ratio > 100) | +++ (Ratio > 100) | +++ (IC50(off-target)/IC50(MKK4) > 100) | +++ (IC50(off-target)/IC50(MKK4) > 100)
CCCS(=O)(=O)Nc1ccc(F)c(C(=O)c2c[nH]c3ncc(C4CCNCC4)cc23)c1F [Example 241, N-(2,4-difluoro-3-(5-(piperidin-4-yl)-1-pyrrolo[2,3-b]pyridine-3-carbonyl)phenyl)propane-1-sulfonamide] | + (3 ≤ PoC < 30) | ◯ (3 ≥ Ratio) | 1 to 10 µM |  | + (10 ≥ ratio > 3) | + (10 ≥ ratio > 3) | ◯ (3 ≥ IC50(off-target)/IC50(MKK4)) | + (10 ≥ IC50(off-target)/IC50(MKK4) > 3)
CCCS(=O)(=O)Nc1ccc(F)c(C(=O)c2c[nH]c3ncc(C4=CCNCC4)cc23)c1F [Example 242] | + (3 ≤ PoC < 30) | ◯ (3 ≥ Ratio) | > 10 µM |  | + (10 ≥ ratio > 3) | + (10 ≥ ratio > 3) | ◯ (3 ≥ IC50(off-target)/IC50(MKK4)) | ++ (100 ≥ IC50(off-target)/IC50(MKK4) > 10)
